Data published in article PMC3957892, “Antibiotic Streptolydigin Requires Noncatalytic Mg^2+ for Binding to RNA Polymerase” (Antimicrobial Agents and Chemotherapy, 2014).

Tests used:
RNAP = system: RNAP; set-up: method as in PMID 791108; conditions: Stl analog lacking the acetamide group; cited from earlier work
[1] = molecular target: T1, Thermus aquaticus RNAP β′H936A/R933A mutant (Thermus aquaticus, UniProt Q9KWU6+Q9KWU7, H1242A/R1239A); experiment: GTP incorporation in elongation complex, H936A/R933A mutant RNAP; format: biochemical
T1 construct: made in house
Experimental: (§1) Recombinant wild-type (WT) and mutant Thermus aquaticus core RNAPs were constructed and purified as described previously ([25]).
(§2) Elongation complexes (ECs) were assembled with WT and mutant (H936A/R933A and M932A [E. coli numbering]) RNAPs as described previously ([18]) and placed in transcription buffer containing 40 mM KCl and 20 mM Tris (pH 7.9). Prior to complex assembly, RNA was ^32P labeled at the 5′ end by using [γ-^32P]ATP (PerkinElmer). All reactions were carried out at 40°C. Stl (Sigma) with or without 10 mM MgCl2 was added before the reactions for 10 min at 40°C. Elongation reactions were initiated by addition of 1 mM GTP or 1 mM GTP with 10 mM MgCl2; endonucleolytic cleavage reactions were initiated by the addition of 10 mM MgCl2. Reactions were stopped by the addition of formamide-containing buffer, and products were analyzed as described previously ([18]). Fast kinetics experiments were performed as described previously ([18]). The kinetics data that were described well by a single exponent were fitted into a single-exponent equation using the nonlinear regression procedure in SigmaPlot software. Plots were normalized to the predicted maximum, which was taken as 100. The rates were then fitted in a hyperbolic equation to determine the Ki[Stl]. […]

[2] = molecular target: T2, WT Thermus aquaticus core RNAP (Thermus aquaticus, UniProt Q9KWU6+Q9KWU7); experiment: Intrinsic (endonucleolytic) cleavage / phosphodiester bond hydrolysis in elongation complex EC2, WT RNAP; format: biochemical
T2 construct: made in house
Experimental: as §1, §2

eukaryotic RNAPs = system: eukaryotic RNAPs; set-up: method as in PMID 11124018, PMID 11297923, PMID 11839495; conditions: cited from earlier work
RNAP β′D792G = system: RNAP β′D792G; set-up: method as in PMID 7592585; conditions: cited from earlier work
[3] = molecular target: T3, Thermus aquaticus RNAP β′M932A mutant (Thermus aquaticus, UniProt Q9KWU6+Q9KWU7, M1238A); experiment: GTP incorporation in elongation complex, M932A mutant RNAP; format: biochemical
T3 construct: made in house
Experimental: as §1, §2

E. coli RNAP β′N792D = system: E. coli RNAP β′N792D; set-up: method as in PMID 16167380; conditions: cited from earlier work
[4] = Mg^2+ binding to Stl, titration followed by UV absorption spectrum; conditions: deduced from titration experiment (Fig. 2A), 20 mM HEPES buffer pH 8.0; read-out: Apparent affinity of Stl for Mg^2+
Experimental: The spectra of Stl were recorded using a UV160U UV-visible (UV-Vis) recording spectrophotometer (Shimadzu Scientific Instruments, Inc.) in a fused silica measuring cell in the presence of the indicated concentrations of the MgCl2 in 20 mM HEPES buffer (pH 8.0).
We attempted to directly visualize if Stl can bind Mg^2+. Stl has a distinct UV absorption spectrum.

[5] = molecular target: T2, WT Thermus aquaticus core RNAP; experiment: GTP (NMP) incorporation in assembled elongation complex EC1, WT RNAP; format: biochemical; conditions: for Ki: 1 mM GTP incorporation, 40°C
Experimental: as §1
Elongation complexes (ECs) were assembled with WT and mutant (H936A/R933A and M932A [E. coli numbering]) RNAPs as described previously ([18]) and placed in transcription buffer containing 40 mM KCl and 20 mM Tris (pH 7.9). Prior to complex assembly, RNA was ^32P labeled at the 5′ end by using [γ-^32P]ATP (PerkinElmer). All reactions were carried out at 40°C. Stl (Sigma) with or without 10 mM MgCl2 was added before the reactions for 10 min at 40°C. Elongation reactions were initiated by addition of 1 mM GTP or 1 mM GTP with 10 mM MgCl2; endonucleolytic cleavage reactions were initiated by the addition of 10 mM MgCl2. Reactions were stopped by the addition of formamide-containing buffer, and products were analyzed as described previously ([18]). Fast kinetics experiments were performed as described previously ([18]). The kinetics data that were described well by a single exponent were fitted into a single-exponent equation using the nonlinear regression procedure in SigmaPlot software. Plots were normalized to the predicted maximum, which was taken as 100. The rates were then fitted in a hyperbolic equation to determine the Ki[Stl]. When the kinetics was described by a double exponent, the predicted maxima of the fast fractions were used for the fit to determine the Stl concentration that inhibited half of the complexes (equivalent of the Ki).
In order to investigate the details of the effects of Stl on RNAP active center functioning, we used artificially assembled elongation complexes (ECs). These complexes are assembled with Thermus aquaticus RNAP, fully complementary synthetic template and nontemplate DNA oligonucleotides, and an RNA oligonucleotide (Fig. 1C and D). […] We analyzed the kinetics of nucleoside monophosphate (NMP) addition in the presence of different concentrations of Stl in the elongation complex EC1, containing a 13-nucleotide-long RNA (Fig. 1C). […]

| Compound | Inhibition of RNAP relative to Stl (RNAP) | Ki [1] [µM] | Half-inhibitory concentration of Stl for NMP incorporation, times lower than that for WT RNAP ([1]; β′H936A/R933A RNAP vs WT RNAP) [times] | Ki [2] [µM] | Concentration of Stl required to inhibit half of the ECs during hydrolysis, times lower than during NTP addition ([2]; WT RNAP, hydrolysis vs NTP addition, −Mg^2+ preincubation) [times] | Inhibition of eukaryotic RNAPs (eukaryotic RNAPs) | Effect of mutation β′D792G on sensitivity to Stl (RNAP β′D792G) | Ki [3] [µM] | Half-inhibitory concentration of Stl for NMP incorporation, times lower than that for WT RNAP ([3]; β′M932A RNAP vs WT RNAP) [times] | Effect of β′N792D substitution in E. coli RNAP on sensitivity to Stl (E. coli RNAP β′N792D) | Kd [4] [µM] | Ki ([5]; Ki[Stl] (half-inhibitory concentration determined from the proportion of the fast fraction), Stl preincubated −Mg^2+) [µM] | Ki ([5]; Ki[Stl], Stl preincubated +Mg^2+ (10 mM MgCl2)) [µM] | Half-inhibitory concentration of Stl when preincubated with Mg^2+, times lower than when Mg^2+ was added together with NTP ([5]; NMP incorporation) [times] |
| --- | --- | --- | --- | --- | --- | --- | --- | --- | --- | --- | --- | --- | --- | --- |
| tirandamycin | significantly weaker inhibitor than Stl | – | – | – | – | – | – | – | – | – | – | – | – | – |
| CNC(=O)[C@@H](C)[C@H]1C(=O)/C(=C(O)/C=C/C(C)=C/[C@@H](C)[C@H]2O[C@@]3(C)O[C@H](C=C[C@@]34CO4)[C@@H]2C)C(=O)N1[C@@H]1CC[C@H](O)[C@H](C)O1 [Stl, streptolydigin] | – | 0.816 | 15 to 20 | 1.83 | ~8 | does not inhibit | strong resistance | 0.649 | 15 to 20 | significant enhancement of the enzyme sensitivity | ~1000 | 13.9 | 0.882 | ~15 |
